Test results taken from publication PMC6013791 (Chemical Science, 2016).
Where a SMILES comes first, the peptide text is derived from it. Bridges are numbered along the chain shown (N, C = ends). [ ]: non-standard residue; d: D form. hArg = N=C(N)NCCCC[C@H](N)C(=O)O; Mpa = O=C(O)CCS

Legend:
CXCR4 [1] = target: T1, CXCR4 (Homo sapiens, UniProt P61073); assay: Ligand efficiency from ChEMBL19 CXCR4 ligand data; conditions: LE = 1.4pAffinity/nheavy_atoms, from ChEMBL19 CXCR4 data ref 28
CXCR4 [2] = target: T1, CXCR4; conditions: cited from earlier work
CXCR4 [3] = target: T1, CXCR4; assay: CXCR4 arrestin assay; format: cell-based; conditions: 30 μM, exploitive and hit expansion iterations

T1 sequence (P61073 whole entry): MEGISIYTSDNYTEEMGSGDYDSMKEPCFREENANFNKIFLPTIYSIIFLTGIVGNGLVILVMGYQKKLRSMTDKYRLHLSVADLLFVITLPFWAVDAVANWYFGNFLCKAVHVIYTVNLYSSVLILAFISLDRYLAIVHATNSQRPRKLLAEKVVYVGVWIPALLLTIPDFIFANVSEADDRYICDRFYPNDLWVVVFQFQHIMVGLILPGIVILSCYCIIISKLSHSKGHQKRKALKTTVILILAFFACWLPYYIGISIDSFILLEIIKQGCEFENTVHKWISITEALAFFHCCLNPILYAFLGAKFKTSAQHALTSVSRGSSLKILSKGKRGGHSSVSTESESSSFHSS

Structure (SMILES) | ligand efficiency (LE) (CXCR4 [1]) | other results
c1cc2nc(c1)CCNCCN(Cc1ccc(CN3CCNCCc4cccc(n4)CCNCC3)cc1)CCNCC2 [CHEMBL1202231] | 0.32 | 
c1ccc(NCc2ccc(CNc3ccccn3)cc2)nc1 [ChEMBL237830] | 0.56 | 
C[C@H](NC(=O)[C@H](CCCN=C(N)N)NC(=O)c1ccc(CNCc2ccccn2)cc1)c1cccc2ccccc12 [KRH-1636] |  | EC50 (CXCR4 [2]): 18 nM
N=C(N)NCCCC[C@@H]1NC(=O)CCSSC[C@@H](C(N)=O)NC(=O)[C@@H]2CCCN2C(=O)[C@H](Cc2c[nH]c3ccccc23)NC(=O)[C@H](CC(=O)O)NC(=O)CNC1=O [integrilin] ([Mpa][hArg]GDWPC-NH2; disulfide 1-7 (inferred)) |  | activity in the arrestin assay (CXCR4 [3]): lack of activity
